Measurements: ChEMBL document CHEMBL1139682, “Synthesis and biological evaluation of technetium-99m-labeled deoxyglucose derivatives as imaging agents for tumor” (Bioorg Med Chem Lett, 2006)

Assays:
[1] = Ratio of uptake in tumor to […] of TA2 mouse bearing MA891 xenograft after 4 hrs; assay type: ADME; settings: in vivo
[2] = Biodistribution in muscle of TA2 mouse bearing MA891 xenograft after 30 mins; assay type: ADME, organism-based, Muscle tissue; settings: read-out: Drug uptake
[3] = Biodistribution in stomach of TA2 mouse bearing MA891 xenograft after 4 hrs; assay type: ADME, organism-based; settings: read-out: Drug uptake
[4] = Biodistribution in kidney of TA2 mouse bearing MA891 xenograft after 4 hrs; assay type: ADME, organism-based; settings: read-out: Drug uptake
[5] = Biodistribution in liver of TA2 mouse bearing MA891 xenograft after 2 hrs; assay type: ADME, organism-based; settings: read-out: Drug uptake
[6] = Biodistribution in muscle of TA2 mouse bearing MA891 xenograft after 2 hrs; assay type: ADME, organism-based, Muscle tissue; settings: read-out: Drug uptake
[7] = Biodistribution in blood of TA2 mouse bearing MA891 xenograft after 4 hrs; assay type: ADME, organism-based; settings: read-out: Drug uptake
[8] = Biodistribution in spleen of TA2 mouse bearing MA891 xenograft after 4 hrs; assay type: ADME, organism-based; settings: read-out: Drug uptake
[9] = Biodistribution in kidney of TA2 mouse bearing MA891 xenograft after 2 hrs; assay type: ADME, organism-based; settings: read-out: Drug uptake
[10] = Ratio of uptake in tumor to blood of TA2 mouse bearing MA891 xenograft after 2 hrs; assay type: ADME
[11] = Biodistribution in muscle of TA2 mouse bearing MA891 xenograft after 4 hrs; assay type: ADME, organism-based, Muscle tissue; settings: read-out: Drug uptake
[12] = Biodistribution in tumor of TA2 mouse bearing MA891 xenograft after 4 hrs; assay type: ADME, organism-based; settings: read-out: Drug uptake
[13] = Biodistribution in intestine of TA2 mouse bearing MA891 xenograft after 2 hrs; assay type: ADME, organism-based; settings: read-out: Drug uptake
[14] = Biodistribution in heart of TA2 mouse bearing MA891 xenograft after 30 mins; assay type: ADME, organism-based; settings: read-out: Drug uptake
[15] = Biodistribution in kidney of TA2 mouse bearing MA891 xenograft after 30 mins; assay type: ADME, organism-based; settings: read-out: Drug uptake
[16] = Biodistribution in tumor of TA2 mouse bearing MA891 xenograft after 30 mins; assay type: ADME, organism-based; settings: read-out: Drug uptake
[17] = Ratio of uptake in tumor to muscle of TA2 mouse bearing MA891 xenograft after 4 hrs; assay type: ADME; settings: in vivo
[18] = Biodistribution in spleen of TA2 mouse bearing MA891 xenograft after 30 mins; assay type: ADME, organism-based; settings: read-out: Drug uptake
[19] = Biodistribution in intestine of TA2 mouse bearing MA891 xenograft after 4 hrs; assay type: ADME, organism-based; settings: read-out: Drug uptake
[20] = Biodistribution in stomach of TA2 mouse bearing MA891 xenograft after 30 mins; assay type: ADME, organism-based; settings: read-out: Drug uptake
[21] = Ratio of uptake in tumor to […] of TA2 mouse bearing MA891 xenograft after 30 mins; assay type: ADME; settings: in vivo, 0.5 h
[22] = Biodistribution in spleen of TA2 mouse bearing MA891 xenograft after 2 hrs; assay type: ADME, organism-based; settings: read-out: Drug uptake
[23] = Biodistribution in blood of TA2 mouse bearing MA891 xenograft after 2 hrs; assay type: ADME, organism-based; settings: read-out: Drug uptake
[24] = Biodistribution in intestine of TA2 mouse bearing MA891 xenograft after 30 mins; assay type: ADME, organism-based; settings: read-out: Drug uptake
[25] = Biodistribution in tumor of TA2 mouse bearing MA891 xenograft after 2 hrs; assay type: ADME, organism-based; settings: read-out: Drug uptake
[26] = Biodistribution in lung of TA2 mouse bearing MA891 xenograft after 30 mins; assay type: ADME, organism-based; settings: read-out: Drug uptake
[27] = Biodistribution in blood of TA2 mouse bearing MA891 xenograft after 30 mins; assay type: ADME, organism-based; settings: read-out: Drug uptake
[28] = Biodistribution in brain of TA2 mouse bearing MA891 xenograft after 30 mins; assay type: ADME, organism-based; settings: read-out: Drug uptake
[29] = Partition coefficient, log P of the compound; assay type: physicochemical; settings: octanol/water
[30] = Biodistribution in brain of TA2 mouse bearing MA891 xenograft after 2 hrs; assay type: ADME, organism-based; settings: read-out: Drug uptake
[31] = Biodistribution in liver of TA2 mouse bearing MA891 xenograft after 30 mins; assay type: ADME, organism-based; settings: read-out: Drug uptake
[32] = Biodistribution in brain of TA2 mouse bearing MA891 xenograft after 4 hrs; assay type: ADME, organism-based; settings: read-out: Drug uptake
[33] = Biodistribution in heart of TA2 mouse bearing MA891 xenograft after 4 hrs; assay type: ADME, organism-based; settings: read-out: Drug uptake
[34] = Biodistribution in lung of TA2 mouse bearing MA891 xenograft after 2 hrs; assay type: ADME, organism-based; settings: read-out: Drug uptake
[35] = Ratio of uptake in tumor to muscle of TA2 mouse bearing MA891 xenograft after 30 mins; assay type: ADME; settings: in vivo, 0.5 h
[36] = Biodistribution in lung of TA2 mouse bearing MA891 xenograft after 4 hrs; assay type: ADME, organism-based; settings: read-out: Drug uptake
[37] = Ratio of uptake in tumor to muscle of TA2 mouse bearing MA891 xenograft after 2 hrs; assay type: ADME; settings: in vivo
[38] = Biodistribution in liver of TA2 mouse bearing MA891 xenograft after 4 hrs; assay type: ADME, organism-based; settings: read-out: Drug uptake
[39] = Biodistribution in stomach of TA2 mouse bearing MA891 xenograft after 2 hrs; assay type: ADME, organism-based; settings: read-out: Drug uptake
[40] = Biodistribution in heart of TA2 mouse bearing MA891 xenograft after 2 hrs; assay type: ADME, organism-based; settings: read-out: Drug uptake

A Ratio [1] of 0.82, a tissue uptake at 0.5 h [2] of 0.51 %ID/g and a tissue uptake at 4 h [3] of 1.41 %ID/g were found for `CSCC(=O)NC1[C@H](O)O[C@H](CO)[C@@H](O)[C@@H]1O` (stereo not given in full) in this work. It also gave a tissue uptake at 4 h [4] of 13.2 %ID/g, a tissue uptake at 2 h [5] of 4.75 %ID/g and a tissue uptake at 2 h [6] of 0.45 %ID/g. For the same molecule, the tissue uptake at 4 h [7] was 1.29 %ID/g, the tissue uptake at 4 h [8] was 1.6 %ID/g and the tissue uptake at 2 h [9] was 10.8 %ID/g. It also gave a Kp at 2 h [10] of 0.59, a tissue uptake at 4 h [11] of 0.33 %ID/g and a tissue uptake at 4 h [12] of 1.06 %ID/g. For the same molecule, the tissue uptake at 2 h [13] was 4.07 %ID/g, the tissue uptake at 0.5 h [14] was 0.9 %ID/g and the tissue uptake at 0.5 h [15] was 8.8 %ID/g. It also gave a tissue uptake at 0.5 h [16] of 1.53 %ID/g, a Ratio [17] of 3.29 and a tissue uptake at 0.5 h [18] of 1.81 %ID/g. The tissue uptake at 4 h [19] was 1.29 %ID/g, the tissue uptake at 0.5 h [20] was 3.69 %ID/g and the Ratio [21] was 0.47. The tissue uptake at 2 h [22] was 1.36 %ID/g, the tissue uptake at 2 h [23] was 2.22 %ID/g and the tissue uptake at 0.5 h [24] was 2.24 %ID/g. For the same molecule, the tissue uptake at 2 h [25] was 1.25 %ID/g, the tissue uptake at 0.5 h [26] was 2.73 %ID/g and the tissue uptake at 0.5 h [27] was 3.32 %ID/g. It also gave a tissue uptake at 0.5 h [28] of 0.11 %ID/g, a logP [29] of -2.92 and a tissue uptake at 2 h [30] of 0.07 %ID/g. It also gave a tissue uptake at 0.5 h [31] of 5.9 %ID/g, a tissue uptake at 4 h [32] of 0.04 %ID/g and a tissue uptake at 4 h [33] of 0.38 %ID/g. The tissue uptake at 2 h [34] was 1.48 %ID/g, the Ratio [35] was 3.2 and the tissue uptake at 4 h [36] was 0.98 %ID/g. For the same molecule, the Ratio [37] was 2.85, the tissue uptake at 4 h [38] was 4.18 %ID/g and the tissue uptake at 2 h [39] was 3.17 %ID/g. The tissue uptake at 2 h [40] was 0.57 %ID/g.
